Test [1] addresses T1, IRAK3 (Homo sapiens, UniProt Q9Y616).
T1 construct: IRAK Endogenous HTRF Degradation Assay; endogenous in cells
T1 sequence (Q9Y616 1-596): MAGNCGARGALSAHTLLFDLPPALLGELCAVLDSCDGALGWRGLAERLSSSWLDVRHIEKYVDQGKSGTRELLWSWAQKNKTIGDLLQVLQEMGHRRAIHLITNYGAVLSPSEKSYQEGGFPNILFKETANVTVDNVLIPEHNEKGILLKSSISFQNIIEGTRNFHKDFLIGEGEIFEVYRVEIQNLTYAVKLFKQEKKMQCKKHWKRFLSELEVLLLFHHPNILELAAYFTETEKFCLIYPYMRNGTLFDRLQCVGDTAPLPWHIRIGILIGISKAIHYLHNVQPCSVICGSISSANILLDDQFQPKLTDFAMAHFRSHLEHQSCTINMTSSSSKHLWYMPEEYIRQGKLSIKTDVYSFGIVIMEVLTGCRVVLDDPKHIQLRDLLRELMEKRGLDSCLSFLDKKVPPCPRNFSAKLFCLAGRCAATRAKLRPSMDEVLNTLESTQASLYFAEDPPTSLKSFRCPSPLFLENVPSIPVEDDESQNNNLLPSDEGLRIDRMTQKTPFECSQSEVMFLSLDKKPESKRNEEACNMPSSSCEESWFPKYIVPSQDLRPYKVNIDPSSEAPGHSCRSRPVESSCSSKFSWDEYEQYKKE
The experiment in a line: IRAK endogenous HTRF degradation assay (Total-IRAK3 HTRF kit). Conditions: overnight incubation, lowest percentage of protein remaining. The format is cell-based. An outline of the steps: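 Cells (~50 k) incubated overnight with 3-fold serial dilutions of compound, then lysed; total IRAK3 read by HTRF (665/615 nm ratio ×10,000), normalized to DMSO as 100%. EC50 from four-parameter logistic fit; Dmax = 100 − Ymin (lowest % protein remaining); DC50 = concentration giving 50% degradation.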
On the technique in general: In TR-FRET formats the signal depends on donor and acceptor labels being close together.

For test [2], the target named is T1, IRAK3. The experiment in a line: IRAK3 biochemical binding assay (LanthaScreen Eu Kinase Binding, TR-FRET). The essentials: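 TR-FRET tracer-displacement binding with 10 nM IRAK3, 2 nM Eu-anti-GST antibody and 10 nM tracer in 50 mM HEPES pH 7.4, MgCl2, 1 mM EGTA, 0.01% Brij-35. Compounds in 3-fold dilutions, 1 h at room temperature. 665/615 nm ratio gave % inhibition; IC50 and Hill slope from dose-response fit.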

The IC50 is the concentration that inhibits the measured activity by half. `Cc1cccc(-c2cnc(Nc3cnn(C4CCN(CC(=O)N5CCN(c6ccc7c(c6)CN(C6CCC(=O)NC6=O)C7=O)CC5)CC4)c3)c3nccn23)c1` (stereo not drawn) [Compound 19, 3-(1-oxo-5-(4-(2-(4-(4-((5-(m-tolyl)imidazo[1,2-a]pyrazin-8-yl)amino)-1H-pyrazol-1-yl)piperidin-1-yl)acetyl)piperazin-1-yl)isoindolin-2-yl)piperidine-2,6-dione]: the “IRAK3 HTRF degradation Ymin” value at IRAK3 [1] is 18%. This molecule also displayed an IC50 at IRAK3 [2] of 1.8 nM.

For the molecule `Cc1cc(-c2cnc(Nc3cnn(C4CCN(CCN5CCN(c6cccc(C7CCC(=O)NC7=O)c6)CC5)CC4)c3)c3nccn23)c(F)cc1F` (stereo not drawn) [Compound 31, 3-(3-(4-(2-(4-(4-((5-(2,4-difluoro-5-methylphenyl)imdazo [1,2-a]pyrazin-8-yl)amino)-1H-pyrazol-1-yl)piperidin-1-yl)ethyl)piperazin-1-yl)phenyl) piperidine-2,6-dione], the “IRAK3 HTRF degradation Ymin” value at IRAK3 [1] is recorded as 40%. The half-inhibitory concentration (IC50) at IRAK3 [2] was determined as 6.1 nM.

Consider `Cc1cc(-c2cnc(Nc3cnn(C4CCN(CCN5CCN(c6ccc(C7CCC(=O)NC7=O)cc6)CC5)CC4)c3)c3nccn23)ccc1F` (stereo not drawn) [Compound 33, 3-(4-(4-(2-(4-(4-((5-(4-fluoro-3-methylphenyl)imdazo [1,2-a]pyrazin-8-yl)amino)-1H-pyrazol-1-yl)piperidin-1-yl)ethyl)piperazin-1-yl)phenyl) piperidine-2,6-dione], for which the “IRAK3 HTRF degradation Ymin” value on IRAK3 [1] came out at 13%. Besides, the IC50 at IRAK3 [2] was found to be 12 nM.

`Cc1cc(-c2cnc(Nc3cnn([C@H]4CCN(CCN5CCN(c6ccc(C7CCC(=O)NC7=O)cc6)C[C@H]5C)[C@@H](C)C4)c3)c3nccn23)c(F)cc1F` (stereo partly drawn) [Compound 35, 3-(4-((R)-4-(2-((2S,4S)-4-(4-((5-(2,4-difluoro-5-methylphenyl)imdazo [1,2-a]pyrazin-8-yl)amino)-1H-pyrazol-1-yl)-2-methylpiperidin-1-yl)ethyl)-3-methylpiperazin-1-yl)phenyl) piperidine-2,6-dione]: the “IRAK3 HTRF degradation Ymin” value at IRAK3 [1] was 7.6%. This molecule also had an IC50 at IRAK3 [2] of 0.65 nM.

As to `Cc1cc(-c2cnc(Nc3cnn([C@H]4CCN(CCN5CCN(c6ccc(C7CCC(=O)NC7=O)cc6)CC5)C[C@@H]4F)c3)c3nccn23)c(F)cc1F` (stereo partly drawn) [Compound 72, 3-(4-(4-(2-((3S,4S)-4-(4-((5-(2,4-difluoro-5-methylphenyl)imdazo [1,2-a]pyrazin-8-yl)amino)-1H-pyrazol-1-yl)-3-fluoropiperidin-1-yl)ethyl)piperazin-1-yl)phenyl) piperidine-2,6-dione], the “IRAK3 HTRF degradation Ymin” value on IRAK3 [1] amounted to 8.3%. In addition, the IC50 at IRAK3 [2] amounted to 1.2 nM.

For the molecule `O=C1CCC(c2ccc(N3CCN(CCN4CCC(n5cc(Nc6ncc(-c7ccc(F)cc7)n7ccnc67)cn5)CC4)CC3)cc2)C(=O)N1` (stereo not drawn) [Compound 74, 3-(4-(4-(2-(4-(4-((5-(4-fluorophenyl)imidazo [1,2-a]pyrazin-8-yl)amino)-1H-pyrazol-1-yl)piperidin-1-yl)ethyl)piperazin-1-yl)phenyl) piperidine-2,6-dione], on IRAK3 [1], the “IRAK3 HTRF degradation Ymin” value is on record as 9.8%. Further, the IC50 at IRAK3 [2] stood at 5.6 nM.

With `O=C1CCC(c2ccc(N3CCN(CCN4CCC(n5cc(Nc6ncc(-c7ccccc7F)n7ccnc67)cn5)CC4)CC3)cc2)C(=O)N1` (stereo not drawn) [Compound 75, 3-(4-(4-(2-(4-(4-((5-(2-fluorophenyl)imidazo [1,2-a]pyrazin-8-yl)amino)-1H-pyrazol-1-yl)piperidin-1-yl)ethyl)piperazin-1-yl)phenyl) piperidine-2,6-dione], at IRAK3 [1], the “IRAK3 HTRF degradation Ymin” value is reported as 9.8%. For the same molecule, the half-maximal inhibitory concentration (IC50) at IRAK3 [2] came out at 14 nM.

Take `Cc1cc(-c2cnc(Nc3cnn(C4CCN(CCN5CCN(c6ccc([C@]7(C)CCC(=O)NC7=O)cc6)CC5)CC4)c3)c3nccn23)c(F)cc1F` [Compound 76, (S)-3-(4-(4-(2-(4-(4-((5-(2,4-difluoro-5-methylphenyl)imdazo [1,2-a]pyrazin-8-yl)amino)-1H-pyrazol-1-yl)piperidin-1-yl)ethyl)piperazin-1-yl)phenyl)-3-methylpiperidine-2,6-dione]: the “IRAK3 HTRF degradation Ymin” value on IRAK3 [1] came out at 64%. For the same molecule, the IC50 at IRAK3 [2] amounted to 1.7 nM.

Take `Cc1cc(-c2cnc(Nc3cnn(C4CCN(CCN5CCN(c6ccc([C@@]7(C)CCC(=O)NC7=O)cc6)CC5)CC4)c3)c3nccn23)c(F)cc1F` [Compound 77, (R)-3-(4-(4-(2-(4-(4-((5-(2,4-difluoro-5-methylphenyl)imdazo [1,2-a]pyrazin-8-yl)amino)-1H-pyrazol-1-yl)piperidin-1-yl)ethyl)piperazin-1-yl)phenyl)-3-methylpiperidine-2,6-dione]: the “IRAK3 HTRF degradation Ymin” value at IRAK3 [1] is given as 8.3%. On IRAK3 [2], the IC50 is 2 nM.

Take `O=C1CCC(c2ccc(N3CCN(CCN4CCC(n5cc(Nc6ncc(-c7cccc(F)c7)n7ccnc67)cn5)CC4)CC3)cc2)C(=O)N1` (stereo not drawn) [Compound 80, 3-(4-(4-(2-(4-(4-((5-(3-fluorophenyl)imidazo [1,2-a]pyrazin-8-yl)amino)-1H-pyrazol-1-yl)piperidin-1-yl)ethyl)piperazin-1-yl)phenyl) piperidine-2,6-dione]: the “IRAK3 HTRF degradation Ymin” value at IRAK3 [1] is 11%. The same molecule had an IC50 on IRAK3 [2] of 140 nM.

In the case of `Cc1cc(-c2cnc(Nc3cnn([C@H]4CC[C@H](CCN5CCN(c6ccc([C@@]7(C)CCC(=O)NC7=O)cc6)CC5)CC4)c3)c3nccn23)c(F)cc1F` [Compound 81, (R)-3-(4-(4-(2-((trans)-4-(4-((5-(2,4-difluoro-5-methylphenyl)imidazo[1,2-a]pyrazin-8-yl)amino)-1H-pyrazol-1-yl)cyclohexyl)ethyl)piperazin-1-yl)phenyl)-3-methylpiperidine-2,6-dione], the “IRAK3 HTRF degradation Ymin” value on IRAK3 [1] worked out at 7.8%. Besides, the half-inhibitory concentration (IC50) on IRAK3 [2] is 10 nM.

As for `Cc1cc(-c2cnc(Nc3cnn([C@H]4CC[C@H](CCN5CCN(c6ccc([C@]7(C)CCC(=O)NC7=O)cc6)CC5)CC4)c3)c3nccn23)c(F)cc1F` [Compound 82, (S)-3-(4-(4-(2-((trans)-4-(4-((5-(2,4-difluoro-5-methylphenyl)imidazo[1,2-a]pyrazin-8-yl)amino)-1H-pyrazol-1-yl)cyclohexyl)ethyl)piperazin-1-yl)phenyl)-3-methylpiperidine-2,6-dione], on IRAK3 [1], the “IRAK3 HTRF degradation Ymin” value amounted to 40%. The molecule also showed a concentration for half-maximal inhibition (IC50) at IRAK3 [2] of 17 nM.

Source of the values: patent US20260216347A1, “Substituted Imidazo-Based Compounds as Ligand Directed Degraders of IRAK3” (Celgene Corporation, priority 2022, published 2026).
